Reference: article PMC3260180, “FRET-Based Detection of M1 Muscarinic Acetylcholine Receptor Activation by Orthosteric and Allosteric Agonists” (PLoS ONE, 2012)

What was measured:
M1-cam5 AChR = molecular target: T1, M1-cam5 AChR (Mus musculus, UniProt P12657, INS361[…]); assay: [3H]NMS competition binding in intact HEK293-M1-cam5 cell monolayers; details: [3H]NMS (~0.3 nM) competition, agonists 4°C for 4 h, antagonists 37°C for 45 min, mean ± s.e.m.
T1 construct: addition of the EYFP^F46L to the C-terminus of full length M1 mAChR; expressed in transfected cells; host or cells: HEK293 cells stably expressing M1-cam5 (HEK293-M1-cam5)
Method: Briefly, HEK293-M1-cam5 cells were seeded at a density of 75,000 cells/well in 24-well plates. […] […] After cell solubilization, SafeFluor scintillation fluid was added, and samples were counted on a scintillation counter.

M1-cam5 mAChR [1] = molecular target: T2, M1-cam5 mAChR (Mus musculus, UniProt P12657, INS361[…]); assay: FRET measurements (FEYFP/FECFP) in HEK293-M1-cam5 cells; format: cell-based; set-up: addition of the EYFP^F46L to the C-terminus of full length M1 mAChR; expressed in transfected cells; host or cells: HEK293 cells stably expressing M1-cam5 (HEK293-M1-cam5); details: for maximal FRET decrease: maximally effective concentration (MCh 300 µM, arecoline 300 µM, pilocarpine 300 µM, 77-LH-28-1 10 µM, AC-42 30 µM), room temperature
Method: The experiments were performed at room temperature.
We also assessed the kinetics of MCh-mediated receptor conformational change with time-resolved determinations of the FRET signal recorded from single cells on activation of M1-cam5 mAChR with various concentrations of MCh.

M1-cam5 mAChR [2] = molecular target: T2, M1-cam5 mAChR; assay: Receptor internalization by confocal microscopy in HEK293-M1-cam5 cells; format: cell-based; set-up: addition of the EYFP^F46L to the C-terminus of full length M1 mAChR; expressed in transfected cells; host or cells: HEK293 cells stably expressing M1-cam5 (HEK293-M1-cam5)
Method: Cells were seeded on coverslips coated with 100 µg/mL poly-D-lysine in PBS. When 70–80% confluency was reached, in some instances the cells were treated with various concentrations of agonists at 37°C and fixed with 4% paraformaldehyde. After a 5 min wash with PBS, the slides were mounted with Slowfade Gold/DAPI (Invitrogen, UK). The slides were examined using an Olympus FV500 confocal microscope, ECFPc and EYFP^F46L were excited via the 458 nm and 515 nm line of the argon laser and emissions were then collected at 480–495 nm and 535–565 nm, respectively. Optical sections (0.5 µm) were taken, and representative sections corresponding to the middle of the cells are presented. For each treatment, between 20 and 30 individual cells in three random fields of view were selected and examined. Fluorescence intensity of specific regions of interest (longitudinal axis) was quantified by using the Measure function of Image J software developed at the National Institutes of Health (http://rsb.info.nih.gov/ij/), as previously described. Briefly, relative quantification of intracellular (internalized) M1-cam5 was determined by measuring the amount of total fluorescence along the longitudinal axis corresponding to the intracellular space (average 4–18 ìm) excluding nucleus. Intracellular fluorescence in cells not treated with the agonist was considered to be basal fluorescence (assigned the value of 1). All other data are normalized to this basal fluorescence level.
Figure 4 Internalization characteristics of the M1-cam5 mAChR stably expressed in HEK293 cells. HEK293-M1-cam5 cells were treated with various concentration of MCh for 45 min (to assess the concentration-dependency of receptor internalization), or with MCh (300 µM) for 0–60 min (to assess the time-dependency of receptor internalization). Cellular distributions of M1-cam5 mAChR were monitored by confocal microscopy. For quantification of intracellular fluorescence at least […] of view were examined as described in the Methods section. […]

M3 mAChRs = assay: Total [3H]inositol phosphate accumulation in wild-type HEK293 cells; format: cell-based, human; details: Li+ (10 mM)
Method: (§1) HEK293-M1-cam5 and HEK293 cells were seeded at 100,000 cells/well in 24-well plates and incubated in fresh medium containing 2.5 µCi/mL [^3H]inositol for 48 h. The assay was performed as previously described.
As an index of PLC activation, agonist-stimulated accumulation of total [^3H]IPx was assessed in the presence of Li^+ (10 mM).

M1-cam5 = molecular target: T3, M1-cam5 (Mus musculus, UniProt P12657, INS361[…]); assay: eGFP-PH biosensor translocation (phosphoinositide turnover) in HEK293-M1-cam5 cells; format: cell-based; details: 10 µM for 60 s
T3 construct: addition of the EYFP^F46L to the C-terminus of full length M1 mAChR; expressed in transfected cells; host or cells: HEK293 cells stably expressing M1-cam5 (HEK293-M1-cam5)

M1-cam5 mAChR [3] = molecular target: T2, M1-cam5 mAChR; details: 1–300 µM for 5 min, serum-starved HEK293-M1-cam5 cells
Method: Proteins were visualized using ECL reagent from GE Healthcare (Chalfont St. Giles, UK).
Phosphoinositide turnover was assessed by monitoring the translocation of the eGFP-PH probe from the plasma membrane to the cytoplasm on addition of MCh (10 µM) for 60 s, followed by washout.

[4] = molecular target: M1-3ic-ECFPc and M1-cterm-EYFP^F46L (Mus musculus, UniProt P12657, INS361[…]); assay: FRET control with coexpressed M1-3ic-ECFPc and M1-cterm-EYFPF46L in HEK293 cells; details: 300 µM
Method: Briefly, HEK293 cells grown on coverslips were mounted on a Nikon Eclipse TE2000-S inverted microscope (Nikon) using an “Attofluor” cell chamber (Molecular Probes, Leiden, The Netherlands) and continuously superfused with HBS (150 mM NaCl, 10 mM HEPES, 10 mM glucose, 2.5 mM KCl, 4 mM CaCl2, 2 mM MgCl2, pH 7.4). Cells were observed using an oil immersion 63× lens, a polychrome V (Till Photonics, Gräfelfing, Germany) for excitation, and a dual emission photometric system. In order to minimize photobleaching, illumination time was set to 10–40 ms, applied with a frequency of 10 Hz. Fluorescence was measured at 535±15 nm (F535) and 480±20 nm (F480) (beam splitter DCLP 505 nm, Chroma Technology, Rockingham, VT, USA) on excitation at 436±10 nm (beam splitter DCLP 460 nm, Chroma Technology). The signals were detected by avalanche photodiodes and digitized using an analog/digital converter (Digidata 1322A, Axon Instruments, Union City, CA, USA) and stored on a PC using Axoscope software (Axon Instruments). The experiments were performed at room temperature.
FRET was assessed using the ratio of normalized EYFP^F46L/ECFPc fluorescence intensities.
HEK-293 cells were transiently transfected with either (A) M1-cam5 or (B) two separate plasmids, one encoding M1 with a C-terminal YFP^F46L tag and the other encoding M1 with an ECFPc tag at the same third intracellular loop location as M1-cam5. […]

M1-cam5 mAChR [5] = molecular target: T2, M1-cam5 mAChR; assay: Total [3H]inositol phosphate accumulation in HEK293-M1-cam5 cells; format: cell-based; set-up: addition of the EYFP^F46L to the C-terminus of full length M1 mAChR; expressed in transfected cells; host or cells: HEK293 cells stably expressing M1-cam5 (HEK293-M1-cam5); details: in presence of Li+ (10 mM)
Method: as §1
As an index of PLC activation, agonist-stimulated accumulation of total [^3H]IPx was assessed in the presence of Li^+ (10 mM). […] On removal of agonist, the eGFP-PH biosensor translocated back to the plasma membrane.

Compound	pK B (apparent binding affinity, −log K B) (M1-cam5 AChR)	maximal FRET decrease (M1-cam5 mAChR [1]) [%]	M1-cam5 mAChR internalization (endocytosis) (M1-cam5 mAChR [2])	other results
CCCCC1CCN(CCCN2C(=O)CCc3ccccc32)CC1 [77-LH-28-1]	6.17±0.12	6.4±0.4	–	–
CCCCC1CCN(CCCC(=O)c2ccccc2C)CC1 [AC-42]	5.11±0.11	5.1±0.3	resulted in receptor endocytosis	–
CC(=O)OC(C)C[N+](C)(C)C (stereo not drawn) [MCh, methacholine]	–	9.8±0.4	internalized in response to MCh in a concentration- and time-dependent manner	EC50 right-shift of [3H]IPx accumulation relative to HEK293-M1-cam5 cells (M3 mAChRs): > 10 fold; translocation of the eGFP-PH biosensor from the plasma membrane to the cytoplasm (M1-cam5): detectable translocation; ERK1/2 phosphorylation (M1-cam5 mAChR [3]): rapid increase; FRET response in cells coexpressing singly tagged receptors [4]: no FRET response; [3H]IPx accumulation, maximal stimulation (M1-cam5 mAChR [5]; basal 3,781±1,792): 41,954±1,030 d.p.m. mg^−1 protein; increase in [3H]IPx accumulation, maximal stimulation (M1-cam5 mAChR [5]; over basal): 11 fold
CN1[C@@H]2CC[C@H]1C[C@@H](OC(=O)C(CO)c1ccccc1)C2 (stereo partly drawn) [atropine]	–	–	–	effect alone on basal M1-cam5 FRET signal (M1-cam5 mAChR [1]): no effect; prevention of agonist-induced FRET change by pre-addition (M1-cam5 mAChR [1]): completely prevented; reversal of agonist-induced FRET change (M1-cam5 mAChR [1]): reversed
C[N+](C)(C)CC#CCN1CCCC1=O [oxo-M, oxotremorine-M]	5.94±0.10	–	resulted in receptor endocytosis	–
